Consider five molecules from ChEMBL document CHEMBL5532754, “Discovery of aurones bearing two amine functionalities as SHIP2 inhibitors with insulin-sensitizing effect in rat myotubes” (RSC Med Chem, 2024).

The structures appear in SMILES notation. Structures can show the parent of a compound that is named as a salt. Active and inactive are the calls of the source. No cut-off for these calls is given here.

Data set [1] has as its system L6. Kind of data set: Induction of glucose uptake in serum-starved rat L6 myotubes at 2 mM by luminescence based microplate reader analysis. In kind it is functional, cell-based.
Data set [2] concerns L6. In words: Insulin sensitizing activity in rat L6 myotubes assessed as increase in glucose uptake by measuring fold change at 2 mM preincubated with compound for 18 hrs followed by insulin addition and measured after 15 mins by luminescence based microplate reader analysis. In kind it is functional. The following applies: time 18.25 hrs.
The target of data set [3] is T1, Phosphatidylinositol 3,4,5-trisphosphate 5-phosphatase 2 (Rattus norvegicus) (UniProt Q9WVR3).
T1 sequence (whole entry): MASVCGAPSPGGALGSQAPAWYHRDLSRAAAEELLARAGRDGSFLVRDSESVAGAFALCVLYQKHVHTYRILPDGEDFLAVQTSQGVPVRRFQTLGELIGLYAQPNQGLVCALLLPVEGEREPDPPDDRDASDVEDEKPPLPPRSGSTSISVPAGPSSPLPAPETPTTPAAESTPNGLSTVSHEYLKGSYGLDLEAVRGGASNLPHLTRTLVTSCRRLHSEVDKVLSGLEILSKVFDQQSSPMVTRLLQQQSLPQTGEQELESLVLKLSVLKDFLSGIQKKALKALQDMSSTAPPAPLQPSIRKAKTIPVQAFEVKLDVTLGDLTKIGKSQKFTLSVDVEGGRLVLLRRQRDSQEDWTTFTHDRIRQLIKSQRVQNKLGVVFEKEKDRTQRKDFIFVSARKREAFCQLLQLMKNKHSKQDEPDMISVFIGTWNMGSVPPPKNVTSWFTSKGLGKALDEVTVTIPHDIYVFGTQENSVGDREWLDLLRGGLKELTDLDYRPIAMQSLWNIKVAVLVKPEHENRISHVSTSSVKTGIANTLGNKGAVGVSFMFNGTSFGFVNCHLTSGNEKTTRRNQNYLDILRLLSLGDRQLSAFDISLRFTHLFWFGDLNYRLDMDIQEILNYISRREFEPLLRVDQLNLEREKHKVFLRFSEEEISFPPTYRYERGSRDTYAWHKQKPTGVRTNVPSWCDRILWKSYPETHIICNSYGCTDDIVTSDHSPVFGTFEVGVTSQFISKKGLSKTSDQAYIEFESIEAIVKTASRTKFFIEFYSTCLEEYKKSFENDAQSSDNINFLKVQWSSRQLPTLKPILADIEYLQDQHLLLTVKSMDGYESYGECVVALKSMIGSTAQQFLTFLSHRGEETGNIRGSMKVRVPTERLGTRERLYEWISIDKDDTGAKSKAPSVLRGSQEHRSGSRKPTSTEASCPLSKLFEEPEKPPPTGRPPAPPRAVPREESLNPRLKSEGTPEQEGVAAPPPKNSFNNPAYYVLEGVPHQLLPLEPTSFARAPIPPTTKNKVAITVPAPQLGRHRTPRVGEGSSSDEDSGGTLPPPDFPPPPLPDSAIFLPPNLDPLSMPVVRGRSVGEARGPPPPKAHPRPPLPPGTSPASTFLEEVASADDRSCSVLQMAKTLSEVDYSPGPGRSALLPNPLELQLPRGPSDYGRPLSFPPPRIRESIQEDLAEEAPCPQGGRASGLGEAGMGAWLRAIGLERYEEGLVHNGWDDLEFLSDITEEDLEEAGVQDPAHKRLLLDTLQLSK
In words: Inhibition of SHIP2 in serum-starved rat L6 myotubes assessed as increase in phosphorylated Akt to total Akt level at 20 to 40 uM incubated for 24 hrs by ELISA. Type of data set: cell-based. The settings on record: dose 20-40 µM. (In general: In an ELISA, binding on a coated surface is turned into a signal by an enzyme label.)

A short description of data set [4]: Apparent permeability of the compound across apical to basolateral side in human Caco-2 cells at 30 uM incubated for 60 mins by LC analysis. In kind it is ADME, cell-based.
In data set [5] the test system is L6. Kind of data set: Induction of glucose uptake in serum-starved rat L6 myotubes at 20 uM by luminescence based microplate reader analysis. In kind it is functional, cell-based.
The nature of data set [6]: Thiol (sulfhydryl) reactivity of compound assessed as change in absorbance at 200 uM at pH 7.4 aqueous buffer measured upto 24 hrs in presence of DTT. Type of data set: ADME. The following applies: pH 7.4, 24 h.
Data set [7] is described as follows: Thiol (sulfhydryl) reactivity of compound assessed as change in absorbance at 200 uM at pH 7.4 aqueous buffer measured at 1 to 24 hrs in presence of DTT. Type of data set: ADME. The following applies: pH 7.4, 200 µM, time 1-24 hrs.

As for `CN(C)C(=N)NC(=N)N` [METFORMIN], in the data set on L6 [1], the outcome was inactive. Also, in the data set with L6 [2], the “fold change (FC)” value came to 1.6.

With `O=C1/C(=C/c2cn(CCN3CCCCC3)c3ccccc23)Oc2cc(OCCN3CCCCC3)ccc21`, the inhibition result in data set [3] is “Active”. Further, in data set [4], the Papp A→B at 1 h, 30 µM is 25.3 ×10⁻⁶ cm/s. Besides, in the data set with L6 [5], the outcome was inactive. The Activity result in data set [6] is “Not Active”.

On to `CN(C)CCCn1cc(/C=C2\Oc3cc(OCCN4CCCCC4)ccc3C2=O)c2ccccc21`, for which, in data set [3], the inhibition entry is “Active”. For the same molecule, in the data set on L6 [5], the result was inactive. For the same molecule, the Activity entry in data set [6] is given as “Not Active”.

Regarding `COC(=O)/C=C/C(=O)OC` [DIMETHYL FUMARATE], in data set [7], the outcome was Active.

For `O=C1/C(=C/c2cn(CCN3CCOCC3)c3ccccc23)Oc2cc(OCCN3CCCCC3)ccc21`, the inhibition result in data set [3] was “Active”. Besides, in the data set with L6 [5], the outcome was inactive. For the same molecule, the Activity result in data set [6] is listed as “Not Active”.

As a reminder, the Papp A→B is how fast a substance crosses the layer from the apical side.
